Results as given in patent US20080305186A1, “Method and Composition for the Treatment of Cardiac Hypertrophy” (BOARD OF REGENTS, THE UNIVERSITY OF TEXAS SYSTEM, priority 2007, published 2008).
“Also recorded” adds a separate entry of the source.

Experiments:
cardiac gene expression = assay: Real-time quantitative RT-PCR of heart RNA; type: in vivo, mice; set-up: key to Oncostatin receptor (Osmr), Real-time RT-PCR: Ind/Red (Induced/reduced) are used instead of fold-changes where no transcript was detected in one of the two samples being compared; Ind/Red (Induced/reduced) are used instead of fold-changes where no transcript was detected in one of the two samples being compared; details: drug + isoproterenol vs isoproterenol only; for Oncostatin receptor (Osmr), Real-time RT-PCR: no transcript detected in one of the two samples
Description: Real-time reverse transcriptase-polymerase chain reaction (RT-PCR). Real-time quantitative RT-PCR was performed in the iCycler iQ multi-Color real-time PCR detection system (Bio-Rad, Hercules, Calif.) using SYBR Green I dye (Qiagen, Valencia, Calif.) as described by the manufacturer. Briefly, 100 ng of RNA was placed into a 25 μl reaction volume containing 2.5 μl of each primer set (Quantitect Primer Assays, Qiagen), 12.5 μl SYBER Green PCR master mix, and 0.25 μl reverse transcriptase. A typical protocol included reverse transcription at 50° C. for 30 minutes and a denaturation step at 95° C. for 15 minutes followed by 35 cycles with 94° C. denaturation for 15 seconds, 55 C annealing for 30 seconds and 72 C extension for 30 seconds. Detection of the fluorescent product was performed at the end of the extension period at 60° C. for 20 seconds. To confirm amplification specificity, the PCR products were subjected to a melting curve analysis. […] Targets were normalized to reactions performed using Quantitect GAPDH primer assay (Qiagen), and fold change was determined using the comparative threshold method (20).

[1] = doxycycline co-administered with carbamazepine; cited from earlier work
[2] = test system: isoproterenol induced cardiac hypertrophy; assay: Isoproterenol-induced cardiac hypertrophy in mice: heart size, heart weight ratios, histology; type: in vivo, C57BL/6 male mice
Description: (§1) All animal and mouse studies and/or models of cardiac hypertrophy were conducted in accordance with the standards set forth in the Guide for the Care and Use of Laboratory Animals (NIH Publication No. 85-23, revised 1996) and were approved by our Institutional Animal Care and Use Committee. Eight week-old C57BL/6 male mice (Jackson Laboratory) were given isoproterenol (Sigma Aldrich) at 40 mg·kg^−1d^−1 administered S.Q. via micro-osmotic pump insertion (ALZET 1007D). Briefly, animals were anesthetized with isoflurane (1.5%) and oxygen (98.5%) using an animal ventilator (Surgivet), an incision (1 cm) was made on the back between the shoulder blades, and micro-osmotic pumps containing isoproterenol dissolved in a saline solution (0.9% NaCl) were inserted into the infrascapular subcutaneous tissue.
Doxycycline was given in drinking water at 6 mg mL^−1 (Sigma Aldrich) containing 5% sucrose unless specified otherwise. Control animals were given 5% sucrose water. […] Water was added to the mix 0.8:1 (water weight to powder weight ratio) and the resulting paste diced and heated at 60° C. overnight.
Histology. Animal hearts were excised, fixated with 10% phosphate-buffered formalin for 48 hours, and then embedded in paraffin. Cross-sectional slices in the minor axis were obtained with a microtome and the slices stained using Mayer's hematoxylin and eosin (H&E).
Statistical analysis of the data includes values presented are expressed in mean ±S.E.M. All comparisons between groups were performed using a one way ANOVA followed by the Newman-Keuls test. Differences were considered to be statistically significant when P<0.05.
P-values are obtained from a one way ANOVA. […] The control group (isoproterenol) received regular chow and 7% sucrose water. Each circle is the Heart to Body weights ratio obtained for a mouse, while the dashes are the average for each group.

CREB = assay: Western blot of phosphorylation status of CREB; type: in vivo; details: mice with isoproterenol-induced cardiac hypertrophy
Description: Western Blots. The antibodies for Adra1b and GAPDH were purchased from Santa Cruz Biochemical Co. (Santa Cruz, Calif.). All other antibodies were purchased from Cell Signaling Technology, and Western blot analysis was performed as previously described (21). Briefly, equal amounts of total protein were loaded and separated on sodium dodecyl sulfate (SDS)—10% polyacrylamide gels and then transferred to nitrocellulose membranes. Membranes were blocked with 5% milk and washed in 1× Tween (0.1%)—Tris-buffered saline (TTBS) three times for 5 minutes each. Primary antibodies diluted 1:1000 in 5% milk or bovine serum albumin (BSA) (prepared in 1×TTBS) were allowed to incubate overnight at 4° C. After washing, horseradish peroxidase (HRP)-conjugated secondary antibody (Cell Signaling Technology) was diluted 1:2000 in 5% milk and applied to membranes. Subsequently, membranes were washed and a chemiluminescence substrate (Pierce, Rockford Ill.) was applied and allowed to incubate at room temperature for 5 minutes.

[3] = test system: positive chronotropic effect induced by isoproterenol; assay: Heart rate of isoproterenol-treated mice; type: in vivo; details: day 9 of treatment, vs isoproterenol-only mice; n=5; FIG. 5
Description: as §1
Doxycycline was given in drinking water at 6 mg mL^−1 (Sigma Aldrich) containing 5% sucrose unless specified otherwise. Control animals were given 5% sucrose water. […] Briefly, chow was crunched in powder and then mixed with carbamazepine. […]
The heart rates of the mice were measured before induction of cardiac hypertrophy and after treatment on day 9, which was 1 day before they were sacrificed. […] Heart rates were measured before the experiment (t0) and 1 day before the sacrifice. […]

[4] = cited from earlier work
Histone Deacetylase = details: cited from earlier work
adenylate cyclase = details: by inhibiting adenylate cyclase; cited from earlier work

Structure (SMILES) | Oncostatin receptor (Osmr), Real-time RT-PCR (cardiac gene expression) | Cyclin-dependent kinase inhibitor 1A (p21) (Cdkn1a), Real-time RT-PCR FC (cardiac gene expression; normalized to GAPDH) [FC] | Cytokine inducible SH2-containing protein 3 (Socs3), Real-time RT-PCR FC (cardiac gene expression; normalized to GAPDH) [FC] | GATA binding protein 4 (Gata4), Real-time RT-PCR FC (cardiac gene expression; normalized to GAPDH) [FC] | Matrix metalloproteinase 3 (Mmp3), Real-time RT-PCR FC (cardiac gene expression; normalized to GAPDH) [FC] | NADPH oxidase 4 (Nox4), Real-time RT-PCR FC (cardiac gene expression; normalized to GAPDH) [FC] | Phospholipase A2 group VII (platelet-activating factor acetylhydrolase, plasma) (Pla2g7), Real-time RT-PCR FC (cardiac gene expression; normalized to GAPDH) [FC] | S100 calcium binding protein A8 (calgranulin A) (S100a8), Real-time RT-PCR FC (cardiac gene expression; normalized to GAPDH) [FC] | SET and MYND domain containing 1 (Smyd1), Real-time RT-PCR FC (cardiac gene expression; normalized to GAPDH) [FC] | Serine protease inhibitor 2-2 (Spi2-2) (Serpin3n), Real-time RT-PCR FC (cardiac gene expression; normalized to GAPDH) [FC] | Transformation related protein 53 inducible nuclear protein 1 (Trp53inp1), Real-time RT-PCR FC (cardiac gene expression; normalized to GAPDH) [FC] | also measured
C[C@H]1c2cccc(O)c2C(=O)C2=C(O)[C@]3(O)C(=O)C(C(N)=O)=C(O)[C@@H](N(C)C)[C@@H]3[C@@H](O)[C@@H]21 [doxycycline] | Red | −7.0 | −4.0 | 4.9 | −3.5 | −4.0 | −1.9 | −181.0 | 1.6 | −3.8 | −1.9 | Cyclin G2 (Ccng2), Real-time RT-PCR FC (cardiac gene expression; normalized to GAPDH): −5.7 FC; DNA-damage-inducible transcript 4 (Ddit4), Real-time RT-PCR FC (cardiac gene expression; normalized to GAPDH): −5.7 FC; Gem GTPase (Gem), Real-time RT-PCR FC (cardiac gene expression; normalized to GAPDH): −1.8 FC; Lipocalin 2 (Lcn2), Real-time RT-PCR FC (cardiac gene expression; normalized to GAPDH): −9.9 FC; Metallothionein 1 (MT2), Real-time RT-PCR FC (cardiac gene expression; normalized to GAPDH): −14.9 FC; S100 calcium binding protein A9 (calgranulin B) (S100a9), Real-time RT-PCR FC (cardiac gene expression; normalized to GAPDH): −104.0 FC; Tubulin, alpha 4 (Tuba4), Real-time RT-PCR FC (cardiac gene expression; normalized to GAPDH): 36.8 FC; half-life [1]: shorter
NC(=O)N1c2ccccc2C=Cc2ccccc21 [carbamazepine] | Red | −2.5 | −4.3 | 2.0 | −2.5 | −3.5 | −3.5 | −2.1 | 3.3 | −13.9 | −3.0 | hypertrophic phenotype, heart cross sections (histology) ([2]; isoproterenol mice, H&E cross sections, FIG. 2): structure that is relatively well preserved; also recorded: reduced the hypertrophic phenotype; Heart to Body weights ratio ([2]; isoproterenol mice, 10 days, doxycycline 10 mg/mL in 7% sucrose water, carbamazepine […] in chow, FIG. 3, carbamazepine vs control P<0.01): significantly decreased; Heart to Tibia length ratio ([2]; isoproterenol mice, carbamazepine in chow or doxycycline in water vs no drug, FIG. 1, carbamazepine vs control P<0.0001): significantly lower; also recorded: significantly decreased; heart weight ([2]; single isoproterenol and carbamazepine treated mouse, FIG. 2C (untreated isoproterenol mouse 0.1800, wild type 0.1305)): 0.1415 grams; levels of phosphorylated CREB (CREB): Almost no phosphorylated CREB was detected; heart rate [3]: significantly lower heart rates; also recorded: attenuation of the positive chronotropic effect; blood pressure and heart rates ([4]; epileptic patients): lower blood pressure and heart rates; cardiovascular toxic effects ([4]; in vivo): no cardiovascular toxic effects; inhibition of Histone Deacetylase (HDAC) (Histone Deacetylase): inhibit Histone Deacetylase; basal and forskolin-stimulated cAMP production (adenylate cyclase): abrogate both basal and forskolin-stimulated cAMP production
